Laboratory results: patent publication US20090325902A1, “HETEROCYCLIC UREA DERIVATIVES AND METHODS OF USE THEREOF” (ASTRAZENECA AB, priority 2008, published 2009)
≈ marks a conversion by molar mass, not a printed value.

How the values were obtained:
E. coli GyrB ATPase = E. coli GyrB ATPase (Escherichia coli, UniProt P0AES6); assay: E. coli GyrB ATPase inhibition (ammonium molybdate/malachite green phosphate detection); type: biochemical
Procedure: E. coli GyrB ATPase Inhibition Activity: Compounds can be tested for inhibition of E. coli GyrB ATPase activity using an ammonium molybdate/malachite green-based phosphate detection assay (Lanzetta, P. A., L. J. Alvarez, P. S. Reinach, and O. A. Candia, 1979, 100: 95-97). Assays can be performed in multiwell plates in 30 μl reactions containing: 50 mM Hepes buffer pH 7.5, 75 mM ammonium acetate, 8.0 mM magnesium chloride, 0.5 mM ethylenediaminetetraacetic acid, 5% glycerol, 1 mM 1,4-Dithio-DL-threitol, 200 nM bovine serum albumin, 1.6 μg/ml sheared salmon sperm DNA, 400 pM E. coli GyrA, 400 pM E. coli GyrB, 250 μM ATP, and compound in dimethylsulfoxide. Reactions can be quenched with 30 μl of ammonium molybdate/malachite green detection reagent containing 1.2 mM malachite green hydrochloride, 8.5 mM ammonium molybdate tetrahydrate, and 1 M hydrochloric acid. Plates can be read in an absorbance plate reader at 650 nm and percent inhibition values are calculated using dimethylsulfoxide (2%)-containing reactions as 0% inhibition and EDTA-containing (2.4 μM) reactions as 100% inhibition controls. An IC50 measurement of compound potency for each compound can be determined from reactions performed in the presence of 10 different compound concentrations.

[1] = target: E. coli Topoisomerase IV ATPase (Escherichia coli, UniProt P20083); assay: E. coli Topoisomerase IV ATPase inhibition; type: biochemical
Procedure: E. coli Topoisomerase IV ATPase Inhibition Activity: Compounds can be tested for inhibition of E. coli topoisomerase IV ATPase activity as described above for E. coli GyrB except the 30 μl reactions contained the following: 20 mM TRIS buffer pH 8, 50 mM ammonium acetate, 8 mM magnesium chloride, 5% glycerol, 5 mM 1,4-Dithio-DL-threitol, 0.005% Brij-35, 5 μg/ml sheared salmon sperm DNA, 500 pM E. coli ParC, 500 pM E. coli ParE, 160 μM ATP, and compound in dimethylsulfoxide. An IC50 measurement of compound potency for each compound can be determined from reactions performed in the presence of 10 different compound concentrations.

S. aureus GyrB ATPase = S. aureus GyrB ATPase (Staphylococcus aureus, UniProt P0A0K8); assay: S. aureus GyrB ATPase inhibition (ammonium molybdate/malachite green phosphate detection); type: biochemical; details: compound concentration of 1 μM; read-out: percent inhibition of S. aureus GyrB ATPase
Procedure: S. aureus GyrB ATPase Inhibition Activity: Compounds may be tested for inhibition of S. aureus GyrB ATPase activity using an ammonium molybdate/malachite green-based phosphate detection assay (Lanzetta, P. A., L. J. Alvarez, P. S. Reinach, and O. A. Candia, 1979, 100: 95-97). Assays can be performed in multiwell plates in 30 μl reactions containing: 50 mM Hepes buffer pH 7.5, 75 mM ammonium acetate, 8.0 mM magnesium chloride, 0.5 mM ethylenediaminetetraacetic acid, 5% glycerol, 1.0 mM 1,4-Dithio-DL-threitol, 200 nM bovine serum albumin, 1.0 μg/ml sheared salmon sperm DNA, 250 pM E. coli GyrA, 250 pM S. aureus GyrB, 250 μM ATP, and compound in dimethylsulfoxide. Reactions can be quenched with 30 μl of ammonium molybdate/malachite green detection reagent containing 1.2 mM malachite green hydrochloride, 8.5 mM ammonium molybdate tetrahydrate, and 1 M hydrochloric acid. Plates can be read in an absorbance plate reader at 650 nm and percent inhibition values can be calculated using dimethylsulfoxide (2%)-containing reactions as 0% inhibition and EDTA-containing ([…]) reactions as 100% inhibition controls. An IC50 measurement of compound potency for each compound can be determined from reactions performed in the presence of 10 different compound concentrations.

Streptococcus pneumoniae = assay: Bacterial susceptibility testing in liquid media (MIC); type: cell-based; details: lowest drug concentration able to reduce growth by 80% or more, read-out: MIC against Streptococcus pneumoniae
Description: Compounds may be tested for antimicrobial activity by susceptibility testing in liquid media. Compounds may be dissolved in dimethylsulfoxide and tested in 10 doubling dilutions in the susceptibility assays. The organisms used in the assay may be grown overnight on suitable agar media and then suspended in a liquid medium appropriate for the growth of the organism. The suspension can be a 0.5 McFarland and a further 1 in 10 dilution can be made into the same liquid medium to prepare the final organism suspension in 100 μL. Plates can be incubated under appropriate conditions at 37° C. for 24 hrs prior to reading. The Minimum Inhibitory Concentration (MIC) may be determined as the lowest drug concentration able to reduce growth by 80% or more.

Chain of S. aureus GyrB ATPase (P0AES4 whole entry): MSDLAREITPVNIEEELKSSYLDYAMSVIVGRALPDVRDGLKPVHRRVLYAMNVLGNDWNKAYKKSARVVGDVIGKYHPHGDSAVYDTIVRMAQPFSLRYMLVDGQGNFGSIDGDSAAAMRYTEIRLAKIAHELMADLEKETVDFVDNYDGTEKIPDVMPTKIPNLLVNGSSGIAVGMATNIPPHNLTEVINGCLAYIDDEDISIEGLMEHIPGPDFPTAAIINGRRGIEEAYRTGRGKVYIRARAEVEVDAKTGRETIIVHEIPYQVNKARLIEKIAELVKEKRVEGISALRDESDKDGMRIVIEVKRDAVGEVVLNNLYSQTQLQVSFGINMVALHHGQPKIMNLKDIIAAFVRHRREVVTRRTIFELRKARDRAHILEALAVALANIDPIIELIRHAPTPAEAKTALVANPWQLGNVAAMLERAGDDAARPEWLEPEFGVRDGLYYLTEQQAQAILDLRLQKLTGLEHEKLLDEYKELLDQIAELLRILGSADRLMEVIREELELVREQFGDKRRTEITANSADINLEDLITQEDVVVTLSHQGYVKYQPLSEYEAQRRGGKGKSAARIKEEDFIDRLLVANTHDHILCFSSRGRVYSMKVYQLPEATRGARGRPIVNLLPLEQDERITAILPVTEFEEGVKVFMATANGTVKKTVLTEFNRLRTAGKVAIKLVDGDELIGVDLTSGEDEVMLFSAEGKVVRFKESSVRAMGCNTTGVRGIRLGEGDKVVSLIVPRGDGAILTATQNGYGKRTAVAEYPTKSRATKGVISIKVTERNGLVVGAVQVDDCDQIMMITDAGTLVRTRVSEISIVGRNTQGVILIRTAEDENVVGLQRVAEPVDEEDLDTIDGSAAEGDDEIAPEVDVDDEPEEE
Chain of S. aureus GyrB ATPase (P0A0K8 whole entry): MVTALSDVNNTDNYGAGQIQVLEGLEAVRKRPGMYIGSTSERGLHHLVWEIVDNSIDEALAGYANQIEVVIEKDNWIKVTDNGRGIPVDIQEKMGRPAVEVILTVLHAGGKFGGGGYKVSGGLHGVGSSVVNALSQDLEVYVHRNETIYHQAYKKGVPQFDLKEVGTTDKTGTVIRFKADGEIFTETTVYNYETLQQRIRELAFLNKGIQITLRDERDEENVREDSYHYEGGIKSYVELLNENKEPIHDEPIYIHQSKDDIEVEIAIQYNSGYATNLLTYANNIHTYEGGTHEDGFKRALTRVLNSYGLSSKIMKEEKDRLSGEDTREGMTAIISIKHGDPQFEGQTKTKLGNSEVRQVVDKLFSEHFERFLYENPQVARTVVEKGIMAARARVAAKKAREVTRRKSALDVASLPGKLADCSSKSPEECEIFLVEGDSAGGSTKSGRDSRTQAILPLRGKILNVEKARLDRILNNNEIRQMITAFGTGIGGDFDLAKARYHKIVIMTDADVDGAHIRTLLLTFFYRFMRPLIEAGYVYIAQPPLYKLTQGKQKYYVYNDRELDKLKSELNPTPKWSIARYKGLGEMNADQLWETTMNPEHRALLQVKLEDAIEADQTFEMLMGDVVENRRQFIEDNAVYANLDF
Chain of E. coli Topoisomerase IV ATPase (P0AFI2 whole entry): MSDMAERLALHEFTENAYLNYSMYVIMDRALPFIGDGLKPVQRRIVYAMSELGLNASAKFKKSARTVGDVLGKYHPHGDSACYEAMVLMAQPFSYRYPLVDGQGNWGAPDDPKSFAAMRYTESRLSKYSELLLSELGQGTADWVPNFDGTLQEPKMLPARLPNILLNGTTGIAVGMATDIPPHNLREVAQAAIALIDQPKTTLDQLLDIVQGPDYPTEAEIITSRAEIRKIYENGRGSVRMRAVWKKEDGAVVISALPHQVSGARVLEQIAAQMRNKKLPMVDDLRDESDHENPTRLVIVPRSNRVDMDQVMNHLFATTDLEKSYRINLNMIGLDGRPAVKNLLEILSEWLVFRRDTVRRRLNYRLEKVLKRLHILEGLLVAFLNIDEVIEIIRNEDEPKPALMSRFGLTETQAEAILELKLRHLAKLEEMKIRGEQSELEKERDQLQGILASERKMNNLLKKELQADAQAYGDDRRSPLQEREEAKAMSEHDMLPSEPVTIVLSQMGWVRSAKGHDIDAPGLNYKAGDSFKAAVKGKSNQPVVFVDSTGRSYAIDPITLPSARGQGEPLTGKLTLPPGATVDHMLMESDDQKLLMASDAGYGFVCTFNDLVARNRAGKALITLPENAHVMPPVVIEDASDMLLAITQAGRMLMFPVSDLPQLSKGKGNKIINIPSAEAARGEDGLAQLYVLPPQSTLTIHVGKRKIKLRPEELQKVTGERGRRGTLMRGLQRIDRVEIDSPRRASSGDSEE
Chain of E. coli Topoisomerase IV ATPase (P20083 whole entry): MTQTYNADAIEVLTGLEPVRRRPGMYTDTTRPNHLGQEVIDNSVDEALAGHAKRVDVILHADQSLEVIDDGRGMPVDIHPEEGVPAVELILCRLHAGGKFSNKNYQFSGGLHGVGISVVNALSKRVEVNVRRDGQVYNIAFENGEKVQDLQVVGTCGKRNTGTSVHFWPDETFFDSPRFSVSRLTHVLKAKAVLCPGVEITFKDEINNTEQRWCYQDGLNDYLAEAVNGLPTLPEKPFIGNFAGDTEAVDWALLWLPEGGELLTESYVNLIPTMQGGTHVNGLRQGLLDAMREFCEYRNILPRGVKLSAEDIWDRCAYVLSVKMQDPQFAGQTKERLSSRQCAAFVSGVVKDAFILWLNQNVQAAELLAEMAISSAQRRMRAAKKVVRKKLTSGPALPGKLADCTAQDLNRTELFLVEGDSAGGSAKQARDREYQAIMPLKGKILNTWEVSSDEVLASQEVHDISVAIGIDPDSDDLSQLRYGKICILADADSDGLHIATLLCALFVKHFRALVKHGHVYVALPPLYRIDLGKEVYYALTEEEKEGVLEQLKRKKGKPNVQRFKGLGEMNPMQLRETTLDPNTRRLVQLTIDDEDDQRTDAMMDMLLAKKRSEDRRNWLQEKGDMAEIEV

For `CCNC(=O)Nc1cc(C#Cc2ccccn2)c(-c2cncc(-c3n[nH]c(=O)o3)c2)cn1` [Example 1, 1-ethyl-3-(5′-(5-oxo-4,5-dihydro-1,3,4-oxadiazol-2-yl)-4-(pyridin-2-ylethynyl)-3,3′-bipyridin-6-yl)urea], the IC50 (E. coli GyrB ATPase) was under 200 µM, the IC50 [1] was under 200 µM and the inhibition at 1 µM (S. aureus GyrB ATPase) was 102%. The MIC (Streptococcus pneumoniae) was 0.2 µM (≈ 0.0855 µg/mL).
